Results published in patent publication US20230032623A1, “Tumor-on-a-chip” (NEW YORK UNIVERSITY, priority 2021, published 2023).
Entries after “also recorded” stand apart in the source; their conditions may differ.

Tests used:
Format in all cases: cell-based, human
allogeneic CD8+ T-cells [1] = assay: Allogeneic CD8+ T-cell extravasation/infiltration across brain microvessels in GBM-on-a-Chip; details: BLZ945 0.1 μg/ml, nivolumab 1 μg/ml, mono or dual, every 24 hr for 3 days, PN, CL, MES GBM
Procedure: (§1) Patient-derived GBM cells were firstly dissociated with Accutase (Innovative Cell Technologies), and then labeled with CellTracker Red (5 μM, C34552, Thermo Fisher-Scientific) as per the manufacturer's instructions. TAMs and GBM cells were then mixed with a number ratio of 1:2 at a cell density of 1×10^8 cells/mL in the brain tissue-mimicking hydrogel. The final cell numbers of GBM and TAMs were about 1×10^5 cells per chip. […] Hydrogel solution was then quickly flushed into the hydrogel loading channel, and then incubated in an incubator at 37° C. and 5% CO2 for 30 min for complete gelation. After incubation, the media infusion channel and the vascular-seeding channel was flushed with fresh cell culture media for 2 hr. HBMVECs labeled with DiD (5 μM, V22887, Thermo Fisher-Scientific) were seeded into the vascular-seeding channel at a density of 5×10^6 cells/mL, and incubated at 37° C. and 5% CO2 overnight with fresh cell culture media. To form the vascular lumens, the microfluidic chip was flipped every 15 mins for 2 hr to let HBMVECs to uniformly attach to the vascular-seeding channel. After 24 hr′ incubation, IL-2 activated allogeneic CD8+ T-cells were firstly labeled with CellTracker Green (5 μM, C2925, Thermo Fisher-Scientific) and loaded into the vascular channel at a total cell number of 1×10^6 cells per chip. After culture in the incubator for 1-3 days, live cell images of different cell compartments were captured by an inverted fluorescent microscope (Zeiss Axio Observer.Z1).
Infiltrated CD8+ T-cells were defined as the CD8+ T-cells migrating out of vascular lumens. To quantify the migration behaviors of those CellTracker Green-labeled allogeneic CD8+ T-cells, time-lapsed image stacks were acquired every minute for 2 hr and at least three positions in each microfluidic chip. The cell centroids at different time points of the same cell were then used to calculate the cell migration speed and linked up to represent the migration trajectories by using ImageJ (NIH). The mean migration speeds were then averaged for all infiltrated cells. […]

[2] = tested on: patient-derived GBM cells; assay: Quantification of GBM cell apoptosis (caspase-3/7 activation) in GBM-on-a-Chip; details: BLZ945 0.1 μg/ml, nivolumab 1 μg/ml, mono or dual; for GBM cell apoptosis with presence of microglia versus macrophage only system: HMC3 microglia present, PN, CL, MES GBM
Procedure: as §1
To examine the apoptosis of GBM cells in the microfluidic model, CellEvent Caspase-3/7 Green Detection Reagent (R37111, Thermo Fisher-Scientific) and Hoechst 33342 (5 μg/mL; H3570, Thermo Fisher-Scientific) were used to distinguish the apoptotic cells that with activated caspase-3/7 with bright green nuclei. […] The ratio of apoptotic GBM cells were calculated as the number of cells with green nuclei to the total number of GBM cells that were stained with CellTracker Red (5 μM, C34552, Thermo Fisher-Scientific). […]

[3] = tested on: tumor-associated macrophages (TAMs); assay: CD163 (M2-like marker) expression on TAM in GBM-on-a-Chip, immunostaining and qPCR
Procedure: U937 monocytes were polarized into macrophages with treatments of 5 nM PMA (Sigma-Aldrich) for 24 hr (Shi Y et al., Nature communications. 2017 Jun. 1; 8(1):1-7). Biomimetic TAMs (CD68+CD163+) were obtained by culturing U937-derived macrophages in complete culture media supplemented with supernatants of patient-derived GBM cells (5×10^5 cells/mL) which were collected after 3 days' culture and centrifuged at 2000×g for 10 min at 4° C. to remove cell debris. Cryopreserved human PBMCs (10HU-003, iXCells Biotechnologies) were thawed and cultured in RPMI-1640 medium (Gibco) supplemented with 10% FBS (Gibco) and 1% penicillin/streptomycin (Gibco) overnight before sorting for CD8+ T-cells. Allogeneic CD8+ T-cells were isolated from PBMCs via negative selection using MojoSort Human CD8 T-Cell Isolation Kit (MojoSort, 480011, Biolegend) as per the manufacturer's protocol (FIG. 7A through FIG. 7D). […]
To characterize the expression of surface marks on GBM cell, CD8+ T-cell and TAM, cells were firstly recovered with Corning Cell Recovery Solution (Corning, N.Y., USA) from the brain tissue-mimicking hydrogel. […] To quantify PD-1 expression on CD8+ T-cell, cells were first incubated with PD-1 primary antibody (367402, Biolegend) for 1 hr, and then visualized with Alexa Fluor 488 conjugated goat anti-mouse IgG secondary antibodies (Invitrogen, 5 μg/mL). […]

allogeneic CD8+ T-cells [4] = assay: CD8+ T-cell activation analysis (CD154 expression) in GBM-on-a-Chip; details: BLZ945 0.1 μg/ml, nivolumab 1 μg/ml, mono or dual, 3 days
Procedure: To characterize the expression of surface marks on GBM cell, CD8+ T-cell and TAM, cells were firstly recovered with Corning Cell Recovery Solution (Corning, N.Y., USA) from the brain tissue-mimicking hydrogel. Briefly, cell culture medium was aspirated, and the microfluidics chip was rinsed with cold 1× PBS twice, 10 min per round. PDMS slabs were detached from the cover glass in the microfluidics chip, followed by incubation with Corning Cell Recovery Solution on ice for 30 min. With gently pipetting the channel containing cells, the cell suspension was centrifuged, washed with cold 1 x PBS twice and then resuspended in 5% BSA blocking buffer. All cell samples were fixed in 4% paraformaldehyde (PFA) (Sigma-Aldrich) for 10 min at room temperature. […] To quantify PD-1 expression on CD8+ T-cell, cells were first incubated with PD-1 primary antibody (367402, Biolegend) for 1 hr, and then visualized with Alexa Fluor 488 conjugated goat anti-mouse IgG secondary antibodies (Invitrogen, 5 μg/mL). […] PD-1 and CD154 expressions on CD8+ T-cell, PD-L1 and CD163 expressions on macrophage were quantified based on the mean florescent intensity of cell staining using ImageJ (NIH). Alternatively, ratios of CD154+ or CD163+-cells were calculated relative to CD8+ cells or CD68+ cells, respectively. […]

PD-L1 = assay: qPCR analysis of PD-L1 expression in TAM and GBM cell
Procedure: Control groups were treated with fresh cell culture media supplemented with DMSO (0.01%) and human IgG4 isotype control antibody (1 μg/mL, BioLegend). Fresh cell culture media supplemented anti-PD-1 and anti-CSF-1R antibodies was loaded in the microfluidic channels 2 hr after loading allogeneic CD8+ T-cells. Blocking media was freshly prepared and replenished every 24 hr for 3 days.
RNA was extracted using RNeasy Plus Mini Kit (Qiagen, US), and cDNA was synthesized from the mRNA using SuperScript IV VILO Master Mix for RT-RCR (Invitrogen, US), followed by real-time PCR using a SYBR Green PCR Master Mix (Thermo Fisher Scientific, US) and QuantStudio six sequence detection system (Applied Biosystems, Thermo Fisher Scientific). The reactions were performed with the following cycling conditions: 95° C. for 10 min followed by 40 cycles of 95° C. for 15 s and 60° C. for 1 min. GAPDH was used as a housekeeping gene for normalization. All experiments were repeated three times. The relative change in gene expression was analyzed with the 2^−ΔΔCT method. […]

| Molecule | Allogeneic CD8+ T-cell extravasation / infiltrated CD8+ T-cells (allogeneic CD8+ T-cells [1]) | Allogeneic CD8+ T-cell extravasation / infiltrated CD8+ T-cells (allogeneic CD8+ T-cells [1]; listed as CSF-1R inhibitor) | GBM cell apoptosis (caspase-3/7 activation) ([2]; 3 days, macrophage-only system) | GBM cell apoptosis with presence of microglia versus macrophage only system [2] | M2-like marker CD163 expression on TAM / macrophage polarization toward M2 phenotype ([3]; BLZ945 0.1 μg/ml every 24 hr for 3 days, PN (GBML20), CL (GBML08), MES (GBML91) GBM subtypes) | CD163 expression in TAM by qPCR ([3]; BLZ945 0.1 μg/ml, qPCR) | CD8+ T-cell activation (CD154 expression, CD154+CD8+ T-cells) (allogeneic CD8+ T-cells [4]) | PD-L1 expression in TAM and GBM cells (PD-L1; BLZ945 0.1 μg/ml alone, qPCR) | mRNA expression of PD-L1 in GBM cell (PD-L1; BLZ945 0.1 μg/ml, GBM cells co-cultured with TAM) |
| --- | --- | --- | --- | --- | --- | --- | --- | --- | --- |
| CNC(=O)c1cc(Oc2ccc3nc(N[C@@H]4CCCC[C@H]4O)sc3c2)ccn1 [BLZ945] | can significantly enhance allogeneic CD8+ T-cell extravasation across brain microvessels | increased allogeneic CD8+ T-cell infiltration in the tumor | limited effect on tumor apoptosis | no significant difference with the GBM and macrophage only condition | suppressed the polarization of macrophages toward an immunosuppressive M2 phenotype in all three GBM subtypes with more significant CD163 marker suppression in the CL and MES GBM subtypes relative to the PN GBM; also recorded: limited expression of CD163 in all GBM subtypes | inhibition of CD163 expression in TAM | did not significantly reverse the immunosuppression onto the cytotoxic CD8+ T-cell | no significant change in PD-L1 expression for both TAM and GBM cells | did not change the PD-L1 expression in GBM cells |
| nivolumab: human IgG4 anti-PD-1 monoclonal antibody; PD-1 blockade | did not increase the extravasation of allogeneic CD8+ T-cell |  |  | no significant difference with the GBM and macrophage only condition |  |  | did enhance CD8+T-cell activation in the PN and MES GBMs |  |  |
